Source: PubChem BioAssay (NCI)
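48-hour exposure; five concentrations; linearly interpolated endpoints. GI50: concentration for 50% inhibition of growth. Definition used: TGI = concentration required for complete inhibition of growth.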

Each compound was assayed on SF-295 CNS (assay: inhibition of tumour cell growth, NCI panel, 48 h).
`CCCCC(C(=O)C(=O)NC1C2CC3CC(C2)CC1C3)C(=O)C(C)C` (centres undefined) was tested, and the TGI was over 100 µM. For `COC(=O)c1cc2c(s1)C(=O)c1ccccc1-2`, the TGI was over 100 µM. `NC(=O)NC1C(c2ccccc2)=C1c1ccccc1` was tested, and the TGI was 54.6 µM. With `Cn1c2c(c3ccccc31)C1CCCCCCC1C1C(=O)OC(=O)C21` (centres undefined) the TGI was over 100 µM. In the case of `Cc1ccc(S(=O)(=O)N(CC(=O)O)c2ccccc2)cc1`, the TGI is reported as over 100 µM. `COc1ccc(C(=O)C(c2ccc(OC)cc2)C2(O)C(=O)Nc3ccc([N+](=O)[O-])cc32)cc1` (centres undefined) was tested, and the TGI was over 100 µM. In the case of `O=C(/C=C/c1ccccc1O)c1ccccc1O`, the TGI is reported as over 100 µM. `N#CC(N)(C(=O)CCC(=O)Nc1cccc(Cl)c1)c1ccc(Cl)cc1` (centres undefined) was tested, and the TGI was over 100 µM. Work on `S=C(Nc1ccccc1)N(/N=C/C=C/c1ccccc1)c1nnc(-c2ccccc2)c(-c2ccccc2)n1` yielded a TGI of over 100 µM. With `CN1CCN(CCOc2ccc(-c3cnc4c(-c5ccccc5F)cnn4c3)cc2)CC1` the GI50 was 1.76 µM and the TGI was 3.2 µM. `CN(C)N=Nc1ccc(NC=O)cc1` showed a TGI of over 100 µM. `COc1cc(C2CC(c3cccc(Br)c3)=NN2C(C)=O)cc(OC)c1OC` (centres undefined) showed a GI50 of 0.238 µM and a TGI of 16.3 µM.

The compounds below were run on SNB-19 CNS (assay: inhibition of tumour cell growth, NCI panel, 48 h).
`OC[C@H]1C[C@](O)(c2ccc(Cl)cc2)[C@@H](c2ccc(Cl)cc2)O1` showed a GI50 of 37.8 µM and a TGI of over 100 µM. In the case of `CC(C)N(C(=O)C12C3C4C5(C#N)C3C1(C#N)C5C42I)C(C)C` (centres undefined), the TGI is reported as over 100 µM. `C=COCCCOc1ccccc1` gave a TGI of over 100 µM. `COc1cc2nc(-c3ccc(Cl)cc3)cc(OCCCN3CCCCC3)c2cc1OC` gave a GI50 of 2.98 µM and a TGI of over 100 µM. `COc1ccc2c3c([nH]c2c1[N+](=O)[O-])C(C)=NCC3` was tested, and the TGI was over 100 µM. In the case of `C=C(c1nc2ccc(Cl)cc2[nH]c1=O)C(O)c1ccc(C(O)C(=O)c2nc3ccc(Cl)cc3[nH]c2=O)cc1` (centres undefined), the TGI is reported as over 100 µM. In the case of `O=c1c2sc(=S)n(-c3ccc(F)cc3)c2ncn1Cc1ccc(F)cc1F`, the GI50 is reported as 75.8 µM and the TGI is reported as over 100 µM. With `CC(C)(C)CC(C)(C)c1cc2c(O)c(c1)Cc1cc(C(C)(C)CC(C)(C)C)cc(c1O)Cc1cc(C(C)(C)CC(C)(C)C)cc(c1O)Cc1cc(C(C)(C)CC(C)(C)C)cc(c1O)C2` the TGI was over 100 µM. Compound `COc1cc(C#CC(=O)OC/C=C/c2ccc3c(c2)OCO3)cc(OC)c1OC` has a TGI of over 100 µM. Work on `Cc1cc([N+](=O)[O-])ccc1Nc1cccc(Cl)c1C` yielded a TGI of 42.9 µM. In the case of `Cn1cc(CO)c2c1C(=O)C=C(N1CC1)C2=O`, the GI50 is reported as under 0.0197 µM and the TGI is reported as 0.862 µM. `CC1=C(C(=O)Nc2ccccc2)C(c2ccccc2)C(C(=O)Nc2ccccc2)=C(C)N1` gave a TGI of over 100 µM. `Cc1nn(-c2ccccc2)c2nc(N3CCOCC3)nnc12` gave a TGI of over 100 µM. For `CC(C)c1ccc2c(c1)CC[C@@H]1[C@@](C)(C(=O)O)CCC[C@]21C`, the GI50 was 6.21 µM and the TGI was 18.6 µM. Compound `CCN(CC)CCOc1ccc(-c2nc3cc(Cl)ccc3s2)cc1` has a GI50 of 2.26 µM and a TGI of 5.36 µM. In the case of `C=C1C(=O)O[C@@H]2C[C@@H]1CC/C(C)=C/CC/C(C)=C/CC[C@@]2(C)O`, the GI50 is reported as 28.4 µM and the TGI is reported as 76.2 µM. `CCOc1ccccc1C=C1c2ccccc2C(=O)c2ccccc21` was tested, and the TGI was over 100 µM. Compound `O=C(CCn1[nH]c(=O)c(Cl)c(Cl)c1=O)NO` has a TGI of over 100 µM. Work on `CC(C)=CC/C=C(/C)[C@H]1CC[C@]2(C)[C@@H]1CC[C@@H]1[C@@]3(C)CCCNC(C)(C)[C@@H]3CC[C@]12C` yielded a GI50 of 3.39 µM and a TGI of 11.6 µM. `[N-]=[N+]=NC12CC3C4CC5CC3C(C1)C(C5)C4C2` was tested, and the TGI was over 100 µM. Work on `NNC(=S)N/N=C(\CC1OC(=O)c2ccccc21)c1ccccc1O` (centres undefined) yielded a TGI of over 100 µM. For `COC1(OC)CC2C(=O)N(Cc3ccccc3)C1C(S(=O)(=O)c1ccccc1)C2S(=O)(=O)c1ccccc1` (centres undefined), the TGI was over 100 µM. Compound `NC(=Nc1c([N+](=O)[O-])cnc2ccccc12)N1CCOCC1` has a TGI of over 100 µM. Compound `Cc1cc(CC(O)c2ccc(Cl)c(Cl)c2)nc(=O)[nH]1` (centres undefined) has a TGI of over 100 µM. For `COC(=O)C(=Cc1cc(OC)ccc1OC)C(=O)OC`, the TGI was over 100 µM. Compound `CC1=NNC(=O)C2CCC(=O)N12` (centres undefined) has a TGI of over 100 µM. `CC(C)c1ccccc1NC(=O)CCc1n[nH]c(=S)o1` was tested, and the TGI was over 100 µM. `CC(C)=CCNc1ncnc2c1ncn2C1OC(CO)C(O)C1O` (centres undefined) showed a GI50 of 3.81 µM and a TGI of over 201 µM. Work on `CCCCC(C(=O)C(=O)NC1C2CC3CC(C2)CC1C3)C(=O)C(C)C` (centres undefined) yielded a TGI of over 100 µM. Work on `COC(=O)c1cc2c(s1)C(=O)c1ccccc1-2` yielded a TGI of over 100 µM. `NC(=O)NC1C(c2ccccc2)=C1c1ccccc1` showed a TGI of over 100 µM. Work on `Cn1c2c(c3ccccc31)C1CCCCCCC1C1C(=O)OC(=O)C21` (centres undefined) yielded a TGI of over 100 µM. In the case of `Cc1ccc(S(=O)(=O)N(CC(=O)O)c2ccccc2)cc1`, the TGI is reported as over 100 µM. In the case of `COc1ccc(C(=O)C(c2ccc(OC)cc2)C2(O)C(=O)Nc3ccc([N+](=O)[O-])cc32)cc1` (centres undefined), the TGI is reported as over 100 µM. Work on `O=C(/C=C/c1ccccc1O)c1ccccc1O` yielded a TGI of over 100 µM. `N#CC(N)(C(=O)CCC(=O)Nc1cccc(Cl)c1)c1ccc(Cl)cc1` (centres undefined) was tested, and the TGI was over 100 µM. `S=C(Nc1ccccc1)N(/N=C/C=C/c1ccccc1)c1nnc(-c2ccccc2)c(-c2ccccc2)n1` was tested, and the TGI was over 100 µM. In the case of `CN1CCN(CCOc2ccc(-c3cnc4c(-c5ccccc5F)cnn4c3)cc2)CC1`, the GI50 is reported as 1.73 µM and the TGI is reported as 3.26 µM. `CN(C)N=Nc1ccc(NC=O)cc1` showed a TGI of over 100 µM. `COc1cc(C2CC(c3cccc(Br)c3)=NN2C(C)=O)cc(OC)c1OC` (centres undefined) showed a GI50 of 0.514 µM and a TGI of over 100 µM.

The compounds below were run on DU-145 prostate (assay: inhibition of tumour cell growth, NCI panel, 48 h).
Compound `OC[C@H]1C[C@](O)(c2ccc(Cl)cc2)[C@@H](c2ccc(Cl)cc2)O1` has a GI50 of 22.1 µM and a TGI of 56.9 µM. With `C=COCCCOc1ccccc1` the GI50 was over 100 µM and the TGI was over 100 µM. In the case of `COc1cc2nc(-c3ccc(Cl)cc3)cc(OCCCN3CCCCC3)c2cc1OC`, the GI50 is reported as 2.54 µM and the TGI is reported as over 100 µM. For `C=C(c1nc2ccc(Cl)cc2[nH]c1=O)C(O)c1ccc(C(O)C(=O)c2nc3ccc(Cl)cc3[nH]c2=O)cc1` (centres undefined), the TGI was over 100 µM. Work on `O=c1c2sc(=S)n(-c3ccc(F)cc3)c2ncn1Cc1ccc(F)cc1F` yielded a GI50 of over 100 µM and a TGI of over 100 µM. With `COc1cc(C#CC(=O)OC/C=C/c2ccc3c(c2)OCO3)cc(OC)c1OC` the TGI was over 100 µM. Work on `Cn1cc(CO)c2c1C(=O)C=C(N1CC1)C2=O` yielded a GI50 of under 0.01 µM and a TGI of 0.131 µM. Work on `CC(C)c1ccc2c(c1)CC[C@@H]1[C@@](C)(C(=O)O)CCC[C@]21C` yielded a GI50 of 4.39 µM and a TGI of 19.6 µM. In the case of `C=C1C(=O)O[C@@H]2C[C@@H]1CC/C(C)=C/CC/C(C)=C/CC[C@@]2(C)O`, the GI50 is reported as 14 µM and the TGI is reported as 30.2 µM. `CC(C)=CC/C=C(/C)[C@H]1CC[C@]2(C)[C@@H]1CC[C@@H]1[C@@]3(C)CCCNC(C)(C)[C@@H]3CC[C@]12C` gave a GI50 of 2.08 µM and a TGI of 4.31 µM. `NC(=Nc1c([N+](=O)[O-])cnc2ccccc12)N1CCOCC1` showed a TGI of over 100 µM. For `CC(C)=CCNc1ncnc2c1ncn2C1OC(CO)C(O)C1O` (centres undefined), the GI50 was 0.277 µM and the TGI was 0.943 µM. With `NC(=O)NC1C(c2ccccc2)=C1c1ccccc1` the TGI was over 100 µM. For `CN1CCN(CCOc2ccc(-c3cnc4c(-c5ccccc5F)cnn4c3)cc2)CC1`, the GI50 was 1.65 µM and the TGI was 3.07 µM. `CN(C)N=Nc1ccc(NC=O)cc1` showed a TGI of over 100 µM. `COc1cc(C2CC(c3cccc(Br)c3)=NN2C(C)=O)cc(OC)c1OC` (centres undefined) showed a GI50 of 0.371 µM and a TGI of 6.61 µM.

These compounds were tested on T-47D breast (assay: inhibition of tumour cell growth, NCI panel, 48 h).
Work on `C=COCCCOc1ccccc1` yielded a GI50 of over 100 µM and a TGI of over 100 µM. `COc1cc2nc(-c3ccc(Cl)cc3)cc(OCCCN3CCCCC3)c2cc1OC` was tested, and the GI50 was 1.31 µM and the TGI was over 100 µM. `C=C(c1nc2ccc(Cl)cc2[nH]c1=O)C(O)c1ccc(C(O)C(=O)c2nc3ccc(Cl)cc3[nH]c2=O)cc1` (centres undefined) showed a TGI of over 100 µM. `O=c1c2sc(=S)n(-c3ccc(F)cc3)c2ncn1Cc1ccc(F)cc1F` showed a GI50 of over 100 µM and a TGI of over 100 µM. `COc1cc(C#CC(=O)OC/C=C/c2ccc3c(c2)OCO3)cc(OC)c1OC` was tested, and the TGI was over 100 µM. `Cn1cc(CO)c2c1C(=O)C=C(N1CC1)C2=O` showed a GI50 of 0.353 µM and a TGI of 7.81 µM. In the case of `CC(C)c1ccc2c(c1)CC[C@@H]1[C@@](C)(C(=O)O)CCC[C@]21C`, the GI50 is reported as 2.39 µM and the TGI is reported as 7.58 µM.
